One assay deals with T1, Mer (Homo sapiens, UniProt Q12866).
T1 construct: purchased Eurofins Discovery (Kinase Profiler service)
T1 sequence (Q12866 21-999): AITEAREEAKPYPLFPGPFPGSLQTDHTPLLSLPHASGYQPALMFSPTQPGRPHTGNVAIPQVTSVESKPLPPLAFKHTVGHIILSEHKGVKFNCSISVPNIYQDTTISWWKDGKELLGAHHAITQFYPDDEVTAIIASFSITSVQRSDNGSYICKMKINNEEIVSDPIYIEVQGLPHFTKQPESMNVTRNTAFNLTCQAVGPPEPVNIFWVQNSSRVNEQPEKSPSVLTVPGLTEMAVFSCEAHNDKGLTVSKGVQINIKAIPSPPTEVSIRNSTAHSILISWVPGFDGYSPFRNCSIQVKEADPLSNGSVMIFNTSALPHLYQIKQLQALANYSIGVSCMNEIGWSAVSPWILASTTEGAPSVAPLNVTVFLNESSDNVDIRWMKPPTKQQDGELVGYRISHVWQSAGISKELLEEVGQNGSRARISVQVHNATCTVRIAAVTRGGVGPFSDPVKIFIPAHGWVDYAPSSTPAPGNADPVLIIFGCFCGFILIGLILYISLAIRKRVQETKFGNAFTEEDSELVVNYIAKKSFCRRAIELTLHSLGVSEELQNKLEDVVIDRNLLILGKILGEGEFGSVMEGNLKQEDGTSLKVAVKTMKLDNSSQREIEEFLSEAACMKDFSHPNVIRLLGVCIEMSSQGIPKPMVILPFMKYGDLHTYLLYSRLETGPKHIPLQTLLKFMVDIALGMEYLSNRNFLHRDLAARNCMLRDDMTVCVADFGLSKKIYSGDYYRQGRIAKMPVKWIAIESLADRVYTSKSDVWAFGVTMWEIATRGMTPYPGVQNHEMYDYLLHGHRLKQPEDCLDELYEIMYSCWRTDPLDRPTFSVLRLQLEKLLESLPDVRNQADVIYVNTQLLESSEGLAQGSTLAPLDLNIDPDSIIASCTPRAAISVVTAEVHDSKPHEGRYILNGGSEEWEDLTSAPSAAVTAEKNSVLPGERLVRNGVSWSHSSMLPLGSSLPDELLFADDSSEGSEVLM
Kind of assay: Filter-binding radiometric kinase activity assay (KinaseProfiler, Eurofins). It counts as biochemical. Conditions: 1 µM compound; read-out: % Residual enzymatic activity at 1 µM Mer. On the procedure: (§1) Filter-binding radiometric kinase activity assay (Kinase Profiler™) from Eurofins Discovery was used to determine the % of inhibition and/or IC50 values. […] The reaction is initiated by the addition of the Mg/ATP mixture. After incubation for 40 minutes at room temperature, the reaction is stopped by the addition of phosphoric acid to a concentration of 0.5%. 10 µL of the reaction is then spotted onto a P30 filter mat and washed four times for 4 minutes in 0.425% phosphoric acid and once in methanol prior to drying and scintillation counting. The IC50 values were derived by fitting a sigmoidal dose-response curve to a plot of assay readout over inhibitor concentration. All fits were computed with the GraphPad Prism Software (San Diego, CA, United States of America). Ki values were derived from IC5o values using Cheng Prusoff equation (Cheng Y et al., Biochem Pharmacol 22(23):3099-3108, 1973).

Another assay addresses T2, TYRO3 (Homo sapiens, UniProt Q06418).
T2 construct: purchased Eurofins Discovery (Kinase Profiler service)
T2 sequence (Q06418 41-890): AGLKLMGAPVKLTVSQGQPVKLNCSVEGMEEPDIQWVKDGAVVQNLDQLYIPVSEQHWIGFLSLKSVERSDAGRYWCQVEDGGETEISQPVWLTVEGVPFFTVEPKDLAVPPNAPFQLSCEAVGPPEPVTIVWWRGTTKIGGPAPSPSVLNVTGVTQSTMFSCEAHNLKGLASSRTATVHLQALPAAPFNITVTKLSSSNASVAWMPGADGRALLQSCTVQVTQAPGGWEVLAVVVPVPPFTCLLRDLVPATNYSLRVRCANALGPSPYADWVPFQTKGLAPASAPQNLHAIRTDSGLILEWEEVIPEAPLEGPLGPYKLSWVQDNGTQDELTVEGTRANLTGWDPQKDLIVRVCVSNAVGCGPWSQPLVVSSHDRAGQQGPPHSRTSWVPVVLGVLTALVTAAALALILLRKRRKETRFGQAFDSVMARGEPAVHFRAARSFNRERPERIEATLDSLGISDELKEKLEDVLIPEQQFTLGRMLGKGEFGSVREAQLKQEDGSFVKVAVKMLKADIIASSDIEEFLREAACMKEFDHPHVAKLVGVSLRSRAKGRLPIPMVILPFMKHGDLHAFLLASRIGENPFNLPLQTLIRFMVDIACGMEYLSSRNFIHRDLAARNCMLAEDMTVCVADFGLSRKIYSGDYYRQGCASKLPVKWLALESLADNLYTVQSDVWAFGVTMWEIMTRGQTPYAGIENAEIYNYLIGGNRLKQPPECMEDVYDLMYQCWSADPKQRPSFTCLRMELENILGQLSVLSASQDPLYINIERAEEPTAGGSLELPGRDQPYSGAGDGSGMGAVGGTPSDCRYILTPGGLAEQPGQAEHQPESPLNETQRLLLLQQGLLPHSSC
The assay is described as above. The format is biochemical. Conditions: 1 µM compound; read-out: % Residual enzymatic activity at 1 µM TYRO3. How it is done: as §1

The target of a further assay is T3, MET (Homo sapiens, UniProt P08581).
T3 construct: purchased Eurofins Discovery (Kinase Profiler service)
T3 sequence (P08581 25-1390): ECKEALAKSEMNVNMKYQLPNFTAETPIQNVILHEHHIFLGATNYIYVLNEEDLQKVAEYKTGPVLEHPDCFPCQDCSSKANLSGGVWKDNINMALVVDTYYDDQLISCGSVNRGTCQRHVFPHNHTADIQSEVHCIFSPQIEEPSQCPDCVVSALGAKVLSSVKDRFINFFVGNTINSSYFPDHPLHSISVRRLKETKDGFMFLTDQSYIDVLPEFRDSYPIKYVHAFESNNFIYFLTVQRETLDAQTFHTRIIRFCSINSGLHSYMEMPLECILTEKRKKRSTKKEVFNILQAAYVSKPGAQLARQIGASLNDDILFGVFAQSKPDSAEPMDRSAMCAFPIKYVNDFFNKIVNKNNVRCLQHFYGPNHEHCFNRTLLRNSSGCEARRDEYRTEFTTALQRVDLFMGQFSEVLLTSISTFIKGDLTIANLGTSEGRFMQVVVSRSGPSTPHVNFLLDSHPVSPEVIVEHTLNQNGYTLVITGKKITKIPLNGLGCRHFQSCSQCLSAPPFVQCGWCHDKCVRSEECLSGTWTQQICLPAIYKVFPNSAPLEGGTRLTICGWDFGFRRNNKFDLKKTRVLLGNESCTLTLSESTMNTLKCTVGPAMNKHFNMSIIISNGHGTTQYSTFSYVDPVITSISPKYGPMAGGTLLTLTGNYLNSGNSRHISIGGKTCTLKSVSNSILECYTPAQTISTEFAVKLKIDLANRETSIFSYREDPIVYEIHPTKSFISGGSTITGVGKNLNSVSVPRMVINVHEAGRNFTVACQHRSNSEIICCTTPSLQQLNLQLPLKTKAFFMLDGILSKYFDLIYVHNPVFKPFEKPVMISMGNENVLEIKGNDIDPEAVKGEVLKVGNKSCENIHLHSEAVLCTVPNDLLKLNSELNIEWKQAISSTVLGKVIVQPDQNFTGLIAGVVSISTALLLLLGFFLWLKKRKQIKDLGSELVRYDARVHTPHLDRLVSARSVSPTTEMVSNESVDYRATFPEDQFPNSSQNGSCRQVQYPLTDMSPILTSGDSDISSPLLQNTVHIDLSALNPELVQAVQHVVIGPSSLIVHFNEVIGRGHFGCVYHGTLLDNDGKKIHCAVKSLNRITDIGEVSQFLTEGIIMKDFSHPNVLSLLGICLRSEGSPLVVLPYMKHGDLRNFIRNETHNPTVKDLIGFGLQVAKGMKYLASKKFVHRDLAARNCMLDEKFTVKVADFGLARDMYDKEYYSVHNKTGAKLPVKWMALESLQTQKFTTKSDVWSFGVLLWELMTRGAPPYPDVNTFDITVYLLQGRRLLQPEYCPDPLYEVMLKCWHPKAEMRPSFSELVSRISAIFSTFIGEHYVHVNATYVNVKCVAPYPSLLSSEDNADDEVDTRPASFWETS
The description is as above. The settings on record: 1 µM compound; read-out: % Residual enzymatic activity at 1 µM MET. The format is biochemical. On the procedure:
as §1

In the next assay the target is T4, AXL (Homo sapiens, UniProt P30530).
T4 construct: purchased Eurofins Discovery (Kinase Profiler service)
T4 sequence (P30530 26-894): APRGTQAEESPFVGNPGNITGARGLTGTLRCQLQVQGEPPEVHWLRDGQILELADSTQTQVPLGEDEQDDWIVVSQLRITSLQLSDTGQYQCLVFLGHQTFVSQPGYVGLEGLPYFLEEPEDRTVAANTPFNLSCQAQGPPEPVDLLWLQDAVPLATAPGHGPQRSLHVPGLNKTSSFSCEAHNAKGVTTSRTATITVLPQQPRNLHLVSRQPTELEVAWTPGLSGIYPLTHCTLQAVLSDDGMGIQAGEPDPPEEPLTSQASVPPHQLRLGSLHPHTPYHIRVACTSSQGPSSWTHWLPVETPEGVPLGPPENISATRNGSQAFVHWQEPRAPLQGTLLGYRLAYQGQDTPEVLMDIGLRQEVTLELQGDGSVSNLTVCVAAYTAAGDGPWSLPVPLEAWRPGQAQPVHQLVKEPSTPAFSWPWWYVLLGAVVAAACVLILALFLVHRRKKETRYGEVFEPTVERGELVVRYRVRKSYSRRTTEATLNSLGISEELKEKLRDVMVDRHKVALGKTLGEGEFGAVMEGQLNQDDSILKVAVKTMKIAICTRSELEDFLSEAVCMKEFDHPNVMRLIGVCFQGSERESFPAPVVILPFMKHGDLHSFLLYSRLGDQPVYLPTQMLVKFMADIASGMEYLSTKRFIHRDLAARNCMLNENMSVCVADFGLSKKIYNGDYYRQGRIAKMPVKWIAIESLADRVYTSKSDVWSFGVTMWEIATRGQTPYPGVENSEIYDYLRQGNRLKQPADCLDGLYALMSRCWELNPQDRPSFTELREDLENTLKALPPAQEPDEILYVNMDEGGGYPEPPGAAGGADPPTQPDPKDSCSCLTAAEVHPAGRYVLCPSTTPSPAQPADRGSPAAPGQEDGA
Described as above. It counts as biochemical. Conditions: 1 µM compound; read-out: % Residual enzymatic activity at 1 µM AXL. How it is done: as §1

A further assay has as its system FLT3-ITD. Kind of assay: ADP Glo Kinase assay. It counts as biochemical. Conditions: 1 µM compound. On the procedure: (§2) Inhibition of CDKs and FLT3 were determined using ADP Glo Kinase assays, as previously described in International Patent Publication No WO 2017/020065.
A further assay has as its system MV4-11. Kind of assay: Proliferation assay (MTT, leukaemia cancer cell line). Conditions: Homo sapiens; 1 µM compound, MV4-11 cells. It counts as cell-based. An excerpt: Compounds from Example 1 were subjected to standard resazurin and MTT assays on solid tumour and leukaemia cancer cell lines, respectively, as previously reported (Wang S et al., J Med Chem 47:1662-1675, 2004 and Diab S et al., CheMedChem 9:962-972, 2014).

Another assay has as its target CDK2E (Homo sapiens, UniProt P24941). Description: ADP Glo Kinase assay. It counts as biochemical. Conditions: 1 µM compound; read-out: % Residual enzymatic activity at 1 µM CDK2E. On the procedure: as §2
The target of another assay is CDK4D1 (Homo sapiens, UniProt P11802). Description: ADP Glo Kinase assay. The format is biochemical. Conditions: 1 µM compound; read-out: % Residual enzymatic activity at 1 µM CDK4D1. On the procedure:
as §2

Chain of CDK4D1 (P11802 whole entry): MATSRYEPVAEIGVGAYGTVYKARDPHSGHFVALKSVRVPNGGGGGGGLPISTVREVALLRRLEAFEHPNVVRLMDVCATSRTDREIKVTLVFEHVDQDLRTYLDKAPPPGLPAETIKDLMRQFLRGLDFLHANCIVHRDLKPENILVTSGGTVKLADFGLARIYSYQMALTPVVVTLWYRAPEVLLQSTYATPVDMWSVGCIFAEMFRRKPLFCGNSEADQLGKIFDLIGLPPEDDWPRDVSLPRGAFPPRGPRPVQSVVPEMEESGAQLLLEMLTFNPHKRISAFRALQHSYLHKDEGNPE
Chain of CDK4D1 (P24385 whole entry partner): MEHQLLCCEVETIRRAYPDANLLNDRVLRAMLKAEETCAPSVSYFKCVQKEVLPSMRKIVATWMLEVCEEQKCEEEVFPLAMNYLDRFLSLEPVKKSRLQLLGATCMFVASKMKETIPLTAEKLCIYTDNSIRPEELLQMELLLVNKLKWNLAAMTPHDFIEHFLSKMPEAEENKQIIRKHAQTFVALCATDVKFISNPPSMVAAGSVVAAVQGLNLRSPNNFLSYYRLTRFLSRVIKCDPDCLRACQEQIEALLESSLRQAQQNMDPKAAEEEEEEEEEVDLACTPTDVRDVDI

As for `Nc1ncnc(Oc2cc(F)c(NC(=O)c3cccn(-c4ccc(F)cc4)c3=O)cc2F)c1Cl` [Cmpd 21, N-(4-((6-amino-5-chloropyrimidin-4-yl)oxy)-2,5-difluorophenyl)-1-(4-fluorophenyl)-2-oxo-1,2-dihydropyridine-3-carboxamide], the remaining activity at 1 µM at Mer came to 30%; at TYRO3, 3%; at MET it was 5%; at AXL, 3%. Moreover, the “% Residual enzymatic activity at 1 µM FLT3-ITD” value (shortened to “% Residual enzymatic activity”) in the assay on FLT3-ITD worked out at 22%. In the assay on MV4-11, this compound returned an activity at 1 µM of 3%.

Regarding `CCOc1ccn(-c2ccc(F)cc2)c(=O)c1C(=O)Nc1ccc(Oc2ncnc(N)c2Cl)c(F)c1` [Cmpd 2, N-(4-((6-amino-5-chloropyrimidin-4-yl)oxy)-3-fluorophenyl)-4-ethoxy-1-(4-fluorophenyl)-2-oxo-1,2-dihydropyridine-3-carboxamide], the remaining activity at 1 µM stood at 1% on Mer; 0% at TYRO3; 2% at MET; 2% at AXL; 94% on CDK2E; 38% at CDK4D1. For the same compound, the “% Residual enzymatic activity” value in the assay on FLT3-ITD was 52%. For the same compound, in the assay with MV4-11, the activity at 1 µM was determined as 15%.

As to `Nc1ncnc(Oc2ccc(NC(=O)c3cccn(-c4ccc(F)cc4)c3=O)cc2Cl)c1Cl` [Cmpd 23, N-(4-((6-amino-5-chloropyrimidin-4-yl)oxy)-3-chlorophenyl)-1-(4-fluorophenyl)-2-oxo-1,2-dihydropyridine-3-carboxamide], the remaining activity at 1 µM amounted to 95% at Mer, 63% on TYRO3, 98% at MET and 67% on AXL. The “% Residual enzymatic activity” value in the assay on FLT3-ITD is listed as 51%. The activity at 1 µM with MV4-11 amounted to 1%.

Consider `Nc1ncnc(Oc2ccc(NC(=O)c3cccn(-c4ccc(F)cc4)c3=O)cc2Cl)c1F` [Cmpd 22, N-(4-((6-amino-5-fluoropyrimidin-4-yl)oxy)-3-chlorophenyl)-1-(4-fluorophenyl)-2-oxo-1,2-dihydropyridine-3-carboxamide], for which the remaining activity at 1 µM on Mer was 89%; on TYRO3, 63%; at MET, 93%; at AXL it was 57%. Also, the “% Residual enzymatic activity” value in the assay with FLT3-ITD is recorded as 43%. This compound registered an activity at 1 µM with MV4-11 of 3%.
